# Source: US9452997B2, “Piperidine and piperazine derivatives as autotaxin inhibitors” (Merck Patent GmbH, priority 2009, dated 2016)
# Biological target: T1, Recombinant autotaxin (Homo sapiens, UniProt Q13822)
# T1 construct: made in house; host or cells: Hi5 insect cells (baculovirus)
# Assay: Autotaxin assay (Amplex Red, LPC substrate)
# Type: biochemical
# Conditions: % of control at 1E−05 (compound concentration); uninhibited control = 100%
# Summary of the method: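 Recombinant autotaxin (Hi5 baculovirus, 16 ng) pre-incubated with compound 30 min at 22° C, then reacted with 75 μM egg LPC for 90 min at 37° C. Choline released is coupled to H2O2 and Amplex Red fluorescence (ex 485/em 612 nm). IC50 from ten 1:3 dilutions from 30 μM, duplicates, normalised to 500 μM C14 LPA.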
row,% CTRL (1E−05) [%],Compound
1,77,"N#Cc1ccc(CCC(=O)N2CCC(N3CCN(C(=O)c4ccc5[nH]nnc5c4)CC3)CC2)cc1 [Compound 94, 4-(3-{4-[4-(1H-Benzotriazole-5-carbonyl)-piperazin-1-yl]-piperidin-1-yl}-3-oxo-propyl)-benzonitrile]"

# Same assay, conditions: recombinant autotaxin, LPC substrate, Amplex Red detection; values given as upper bounds
row,IC50 [µM],Compound
1,< 1,"O=C(OCc1cc(F)cc(C(F)(F)F)c1)N1CCC(N2CCN(C(=O)c3ccc4[nH]nnc4c3)CC2)CC1 [Compound 75, 4-[4-(1H-Benzotriazole-5-carbonyl)-piperazin-1-yl]-piperidine-1-carboxylic acid 3-fluoro-5-trifluoromethyl-benzyl ester]"
2,< 10,"O=C(Nc1ccc2[nH]c(=O)oc2c1)c1cncc(N2CCN(C(=O)OCc3ccc(Cl)cc3)CC2)c1 [Compound 5, 4-[5-(2-Oxo-2,3-dihydro-benzooxazol-6-ylcarbamoyl)-pyridin-3-yl]-piperazine-1-carboxylic acid 4-chloro-benzyl ester]"
3,< 1,"O=C(OCc1ccc(C(F)(F)F)c(Cl)c1)N1CCC(N2CCN(C(=O)c3ccc4[nH]nnc4c3)CC2)CC1 [Compound 92, 4-[4-(1H-Benzotriazole-5-carbonyl)-piperazin-1-yl]-piperidine-1-carboxylic acid 3-chloro-4-trifluoromethyl-benzyl ester]"
4,< 30,"O=C(NC1CCC(N2CCN(C(=O)OCc3ccccc3)CC2)CC1)c1ccc2[nH]nnc2c1 (centres unmarked) [Compound 185, 4-{4-[(1H-Benzotriazole-5-carbonyl)-amino]-cyclohexyl}-piperazine-1-carboxylic acid benzyl ester]"
5,< 1,"O=C(Nc1ccc2[nH]c(=O)oc2c1)C1CC(=O)N(C2CCN(C(=O)OCc3cc(Cl)cc(Cl)c3)CC2)C1 (centres unmarked) [Compound 15, 4-[2-Oxo-4-(2-oxo-2,3-dihydro-benzooxazol-6-ylcarbamoyl)-pyrrolidin-1-yl]-piperidine-1-carboxylic acid 3,5-dichloro-benzyl ester]"
6,< 10,"O=C(c1ccc2[nH]nnc2c1)N1CCC(N2CCN(C(=O)c3nc4cc(C(F)(F)F)ccc4[nH]3)CC2)CC1 [Compound 52, (1H-Benzotriazol-5-yl)-{4-[4-(5-trifluoromethyl-1H-benzoimidazole-2-carbonyl)-piperazin-1-yl]-piperidin-1-yl}-methanone]"
7,< 30,"Cn1nc2ccccc2c1COC(=O)N1CCN(C2CCN(C(=O)c3ccc4[nH]nnc4c3)CC2)CC1 [Compound 134, 4-[1-(1H-Benzotriazole-5-carbonyl)-piperidin-4-yl]-piperazine-1-carboxylic acid 2-methyl-2H-indazol-3-ylmethyl ester]"
8,< 1,"O=C(OCc1cc(Cl)cc(C(F)(F)F)c1)N1CCC(N2CCN(C(=O)c3ccc4[nH]nnc4c3)CC2)CC1 [Compound 77, 4-[4-(1H-Benzotriazole-5-carbonyl)-piperazin-1-yl]-piperidine-1-carboxylic acid 3-chloro-5-trifluoromethyl-benzyl ester]"
9,< 1,"O=C(OCc1ccc(SC(F)F)cc1)N1CCN(C2CCN(C(=O)c3ccc4[nH]nnc4c3)CC2)CC1 [Compound 168, 4-[1-(1H-Benzotriazole-5-carbonyl)-piperidin-4-yl]-piperazine-1-carboxylic acid 4-difluoromethylsulfanyl-benzyl ester]"
10,< 10,"O=C(Nc1ccc(Cl)c(C(F)(F)F)c1)C(=O)N1CCN(C2CCN(C(=O)c3ccc4[nH]nnc4c3)CC2)CC1 [Compound 72, 2-{4-[1-(1H-Benzotriazole-5-carbonyl)-piperidin-4-yl]-piperazin-1-yl}-N-(4-chloro-3-trifluoromethyl-phenyl)-2-oxo-acetamide]"
11,< 1,"O=C(OCc1cc(F)c(F)c(F)c1)N1CCC(N2CCN(C(=O)c3ccc4[nH]nnc4c3)CC2)CC1 [Compound 79, 4-[4-(1H-Benzotriazole-5-carbonyl)-piperazin-1-yl]-piperidine-1-carboxylic acid 3,4,5-trifluoro-benzyl ester]"
12,< 10,"COc1cc(COC(=O)N2CCN(C3CCN(C(=O)c4ccc5[nH]nnc5c4)CC3)CC2)cc(OC)c1 [Compound 150, 4-[1-(1H-Benzotriazole-5-carbonyl)-piperidin-4-yl]-piperazine-1-carboxylic acid 3,5-dimethoxy-benzyl ester]"
13,< 10,"Nc1n[nH]c2ccc(C(=O)N3CCN(C4CCN(C(=O)OCc5ccc(C(F)(F)F)cc5)CC4)CC3)cc12 [Compound 112, 4-[4-(3-Amino-1H-indazole-5-carbonyl)-piperazin-1-yl]-piperidine-1-carboxylic acid 4-trifluoromethyl-benzyl ester]"
14,< 10,"O=C(CCc1ccc(Cl)cc1Cl)N1CCC(N2CCN(C(=O)c3ccc4[nH]nnc4c3)CC2)CC1 [Compound 82, 1-{4-[4-(1H-Benzotriazole-5-carbonyl)-piperazin-1-yl]-piperidin-1-yl}-3-(2,4-dichloro-phenyl)-propan-1-one]"
15,< 1,"CC(C)c1ccc(CCC(=O)N2CCC(N3CCN(C(=O)c4ccc5[nH]nnc5c4)CC3)CC2)cc1 [Compound 84, 1-{4-[4-(1H-Benzotriazole-5-carbonyl)-piperazin-1-yl]-piperidin-1-yl}-3-(4-isopropyl-phenyl)-propan-1-one]"
16,< 1,"O=C(OCc1cc(Cl)cc(C(F)(F)F)c1F)N1CCN(C2CCN(C(=O)c3ccc4[nH]nnc4c3)CC2)CC1 [Compound 99, 4-[1-(1H-Benzotriazole-5-carbonyl)-piperidin-4-yl]-piperazine-1-carboxylic acid 5-chloro-2-fluoro-3-trifluoromethyl-benzyl ester]"
17,< 1,"O=C(OCc1cc(Cl)cc(Cl)c1)N1CCC(N2CCN(C(=O)c3ccc4[nH]nnc4c3)CC2)CC1 [Compound 20, 4-[4-(1H-Benzotriazole-5-carbonyl)-piperazin-1-yl]-piperidine-1-carboxylic acid 3,5-dichloro-benzyl ester]"
18,< 1,"O=C(CCc1ccccc1O)N1CCC(C2CCN(C(=O)c3ccccc3-c3cccc(C(F)(F)F)c3)CC2)CC1 [Compound 1, 3-(2-Hydroxy-phenyl)-1-[1′-(3′-trifluoromethyl-biphenyl-2-carbonyl)-[4,4′]bipiperidinyl-1-yl]-propan-1-one]"
19,< 10,"O=C(OCc1c(F)cc(Br)cc1F)N1CCN(C2CCN(C(=O)c3ccc4[nH]nnc4c3)CC2)CC1 [Compound 157, 4-[1-(1H-Benzotriazole-5-carbonyl)-piperidin-4-yl]-piperazine-1-carboxylic acid 4-bromo-2,6-difluoro-benzyl ester]"
20,< 10,"O=C(c1ccc2[nH]nnc2c1)N1CCC(N2CCN(C(=O)c3cc4cc(Br)ccc4o3)CC2)CC1 [Compound 159, (1H-Benzotriazol-5-yl)-{4-[4-(5-bromo-benzofuran-2-carbonyl)-piperazin-1-yl]-piperidin-1-yl}-methanone]"
21,< 10,"Cc1nc(-c2ccc(C(F)(F)F)cc2)sc1C(=O)N1CCC(N2CC(C(=O)Nc3ccc4[nH]nnc4c3)CC2=O)CC1 (centres unmarked) [Compound 24, 1-{1-[4-Methyl-2-(4-trifluoromethyl-phenyl)-thiazole-5-carbonyl]-piperidin-4-yl}-5-oxo-pyrrolidine-3-carboxylic acid (1H-benzotriazol-5-yl)-amide]"
22,< 10,"O=C(OCc1ccc(Cl)c(OC(F)(F)F)c1)N1CCN(C2CCN(C(=O)c3ccc4[nH]nnc4c3)CC2)CC1 [Compound 145, 4-[1-(1H-Benzotriazole-5-carbonyl)-piperidin-4-yl]-piperazine-1-carboxylic acid 4-chloro-3-trifluoromethoxy-benzyl ester]"
23,< 10,O=C(OCc1ccc(C(F)(F)F)cc1)N1CCC(n2ccc(-c3ccc4[nH]c(=O)oc4c3)n2)CC1 [Compound 108]
24,< 1,"O=C(OCc1c(F)c(F)c(C(F)(F)F)c(F)c1F)N1CCC(N2CCN(C(=O)c3ccc4[nH]nnc4c3)CC2)CC1 [Compound 144, 4-[4-(1H-Benzotriazole-5-carbonyl)-piperazin-1-yl]-piperidine-1-carboxylic acid 2,3,5,6-tetrafluoro-4-trifluoromethyl-benzyl ester]"

row,Compound,IC50 [µM]
1,"O=C(COc1ccc(OC(F)(F)F)cc1)N1CCN(C2CCN(C(=O)c3ccc4[nH]nnc4c3)CC2)CC1 [Compound 160, 1-{4-[1-(1H-Benzotriazole-5-carbonyl)-piperidin-4-yl]-piperazin-1-yl}-2-(4-trifluoromethoxy-phenoxy)-ethanone]",< 10
